Measured values as given in the METLIN SMRT retention time set (Domingo-Almenara et al. 2019).

Assay: gradient 5% acetonitrile 3 min, to 50% in 2 min, to 85% in 15 min, held 3 min, 100 µL/min
Conditions: column: Zorbax Extend-C18 2.1 x 50 mm; eluents: water / acetonitrile, 0.1% formic acid
Outline: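 Standards, all pure, were combined into mixtures of ~100 molecules and run at 100 μL/min on a Zorbax Extend-C18 column (2.1 × 50 mm, 1.8 μm) with water and acetonitrile, each containing 0.1% formic acid. A coupled quadrupole time-of-flight mass spectrometer operated in positive and negative ionization mode. Retention time values come from computationally picked adduct peaks, each inspected manually.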

Which RP-LC retention time does the source give for `O=C(C1CCCN(c2ncnc3c2nc2n3CCCCC2)C1)N1CCc2ccccc21` (configuration not stated) here?
The RP-LC retention time was 860 s.

With `CCN(CC)C(=O)c1ccc2c(c1)N(Cc1ccc(F)cc1)C(=O)CO2` as the compound, how does the RP-LC retention time read?
The RP-LC retention time was 826 s.

For `CCN(CC)CCNC(=S)Nc1ccc2nc(N3CCN(CC)CC3)cc(C)c2c1`, which RP-LC retention time is on record?
Its RP-LC retention time is 493 s.

For `COCCNC(=O)c1c(C)oc2ccn(Cc3ccc(F)cc3)c(=O)c12`, which RP-LC retention time is on record?
Its RP-LC retention time is 837 s.

With `Cc1ccc(Cn2c(N3CCCC(C(=O)Nc4ccc(Cl)cc4)C3)nc3ccsc3c2=O)cc1` (configuration not stated) as the compound, how does the RP-LC retention time read?
The RP-LC retention time was 1160 s.

Which RP-LC retention time does the source give for `Cc1cc(-c2nnc(C3CC3)o2)c(C)n1CC(=O)Nc1cccc(F)c1` here?
The RP-LC retention time was 825 s.

With `CCOc1ccc(-c2csc3c(=O)n(Cc4cccnc4)cnc23)cc1OCC` as the compound, how does the RP-LC retention time read?
The RP-LC retention time was 699 s.

With `COc1cccc2sc(N(CCCN(C)C)C(=O)c3cccc(C(F)(F)F)c3)nc12` as the compound, how does the RP-LC retention time read?
The RP-LC retention time was 622 s.

With `CCOCCCNC(=O)N1CCCC(C)(C(=O)NCc2ccc(C)cc2)C1` (configuration not stated) as the compound, how does the RP-LC retention time read?
Its RP-LC retention time is 740 s.

For `Cc1ccccc1NC(=O)CSc1nnc2c3cc(-c4ccccc4)nn3ccn12`, which RP-LC retention time is on record?
The RP-LC retention time was 841 s.

For `O=C(CCc1nnc2ccc(N3CCCC3)nn12)N1CCN(c2ccccn2)CC1`, which RP-LC retention time is on record?
Its RP-LC retention time is 585 s.

For `COc1ccc(N2CC(c3noc(-c4cc(Cl)ccc4F)n3)CC2=O)cc1` (configuration not stated), which RP-LC retention time is on record?
Its RP-LC retention time is 1050 s.

Which RP-LC retention time does the source give for `Cc1ccc(C2Cn3cnc(C(=O)N4CCC(C(=O)NCCc5ccccc5)CC4)c3CO2)cc1` (configuration not stated) here?
Its RP-LC retention time is 826 s.

For `CSc1ncc(Cl)c(C(=O)Nc2cc(C)on2)n1`, which RP-LC retention time is on record?
The RP-LC retention time was 783 s.

With `Cc1cc2nc(N3CCOCC3)n(CC(=O)Nc3cc(F)cc(F)c3)c(=O)c2n1C` as the compound, how does the RP-LC retention time read?
The RP-LC retention time was 677 s.

With `Cc1cc(C(=O)N2CCC3(CCC3O)CC2)c(C)o1` (configuration not stated) as the compound, how does the RP-LC retention time read?
Its RP-LC retention time is 683 s.

For `Cn1c(=O)n(C)c2cc(N3CCOCC3)c(NC(=O)COc3ccc(Cl)cc3)cc21`, which RP-LC retention time is on record?
The RP-LC retention time was 899 s.

With `CCCCn1cc(S(=O)(=O)NCc2ccccc2)c2cccnc21` as the compound, how does the RP-LC retention time read?
The RP-LC retention time was 946 s.

With `COc1ccc(C)c2sc(N(CCN(C)C)C(=O)c3cnn(-c4ccccc4)c3C)nc12` as the compound, how does the RP-LC retention time read?
Its RP-LC retention time is 632 s.

Which RP-LC retention time does the source give for `CCn1cc(C(CNC(=O)Nc2ccc(OC)cc2)c2cccnc2)c2ccccc21` (configuration not stated) here?
The RP-LC retention time was 700 s.

For `CCc1ccc(-c2cc3c(=O)n(Cc4noc(CN5CCOCC5)n4)ccn3n2)cc1`, which RP-LC retention time is on record?
The RP-LC retention time was 813 s.

For `O=C(Nc1ccccc1)C1CC(=O)N(c2ccc3c(c2)CCN3C(=O)C2CC2)C1` (configuration not stated), which RP-LC retention time is on record?
Its RP-LC retention time is 743 s.

Which RP-LC retention time does the source give for `COc1ccc(CN2CCc3nc(N4CCCC4)ncc3C2)c(OC)c1` here?
The RP-LC retention time was 619 s.

With `Cn1ncc(NC(=O)c2cccc(Cl)c2)c(N2CCOCC2)c1=O` as the compound, how does the RP-LC retention time read?
Its RP-LC retention time is 777 s.

With `Cc1cc(C)cc(C(=O)NCc2ccc3c(c2)nnn3C)c1` as the compound, how does the RP-LC retention time read?
Its RP-LC retention time is 755 s.

Which RP-LC retention time does the source give for `Cc1ccc(N2CCN(C(=O)c3cn4c(n3)COCC4)CC2)cc1` here?
Its RP-LC retention time is 651 s.

For `C=CCN1C(=O)COc2ccc(-c3csc(NC(=O)C(C)(C)C)n3)cc21`, which RP-LC retention time is on record?
The RP-LC retention time was 964 s.

For `Cc1cc(NC(=O)C2CCCN(c3nnc4cccc(C)n34)C2)ccc1F` (configuration not stated), which RP-LC retention time is on record?
The RP-LC retention time was 721 s.

Which RP-LC retention time does the source give for `O=C(CSc1nc(N2CCCCC2)nc2ccccc12)Nc1ccc(Cl)cc1` here?
The RP-LC retention time was 804 s.

Which RP-LC retention time does the source give for `O=S(=O)(c1cccc2nsnc12)N1CCCn2nc(-c3ccncc3)cc2C1` here?
The RP-LC retention time was 591 s.

Which RP-LC retention time does the source give for `CCOCCCNC(=O)CCC(=O)N1CC2CCCN2c2ccccc21` (configuration not stated) here?
Its RP-LC retention time is 729 s.

For `O=c1n(Cc2cc(F)cc(F)c2)nc2c(S(=O)(=O)N3CCc4ccccc4C3)cccn12`, which RP-LC retention time is on record?
Its RP-LC retention time is 966 s.

For `COc1ccc(NS(=O)(=O)c2cn(CC(C)C)c3ncccc23)cc1F`, which RP-LC retention time is on record?
The RP-LC retention time was 896 s.

Which RP-LC retention time does the source give for `Cc1ccc(NC(=O)N2CCC(CC(=O)N3CCCCC3)CC2)cc1F` here?
The RP-LC retention time was 813 s.

With `COc1ccccc1-n1ccn(Cc2nc(-c3ccccc3C)no2)c(=O)c1=O` as the compound, how does the RP-LC retention time read?
Its RP-LC retention time is 850 s.

With `COCCNC(=O)C1c2ccccc2CC(=O)N1Cc1ccccc1` (configuration not stated) as the compound, how does the RP-LC retention time read?
The RP-LC retention time was 711 s.

For `CCC(=O)N1CCCC(C(=O)N2CCOCC2)C1` (configuration not stated), which RP-LC retention time is on record?
Its RP-LC retention time is 564 s.
